Laboratory results from patent US10172957B2, “Acid-labile lipophilic prodrugs of cancer chemotherapeutic agents” (priority 2011, dated 2019).

Legend:
[1] = Stability in human plasma at 37° C.; format: in vitro ADME
Method: The stability of the acid labile, lipophilic molecular conjugates to hydrolysis in plasma was evaluated to determine their potential to release the active cancer chemotherapeutic agents into systemic circulation and thereby cause general off target toxicity (“side effects”). The conjugates were incubated with plasma of mouse, rat and human origin.
HPLC grade Methanol from Fisher (Fair lawn, NJ, USA). Part No: A452-4 (074833). HPLC grade Water from Fisher (Fair lawn, NJ, USA). Part No: W5-4 (073352). Drug-free mouse, rat and human plasmas were purchased from Innovative Research Inc. (Southfield, Mich., USA). LIPOSYN® I.V. (30% soybean oil and egg yolk phospholipids, Abbott Laboratories) Fat Emulsion from Hospira, Inc. (Lake Forest, Ill.).
Each drug (ART 198, ART 273, ART 488 and ART 489) was prepared in triplicate in mouse, rat and human plasma individually at […] concentration and vortexed for 1 minute and placed in a water bath at 37° C. at a shake rate of 75 per minute. Samples were drawn at time points of 0, 15, 30, 45, 60, 75, 90, 105, 120, 135, 150, 165, 180, 210, 240, 300, 360 and 480 minutes.
Chromatographic separation of the compounds was performed on a Waters Acquity UPLC™ using a BEH C18 column (1.7 μm, 2.1×50 mm). The mobile phase consisted of Methanol: 0.1% Formic acid (80:20). The flow rate was 0.3 ml/min; the sample injection volume was 5 μL, resulting in a 3 minute run time.
The MS instrumentation consisted of a Waters Micromass Quattro Micro™ triple-quadrupole system (Manchester, UK). The MS system was controlled by a 4.0 version of MassLynx software. Ionization was performed in the positive electrospray ionization mode. MS/MS conditions were the following: capillary voltage 3.02 kV; cone voltage 50 v; extractor voltage 5 v; and RF lens voltage 0.5 v. The source and desolvation temperatures were 100° C. and 400° C. respectively, and the desolvation and cone gas flow were 400 and 30 L/hr, respectively.
The selected mass-to-charge (m/z) ratio transitions of the ART 198 used in the selected ion monitoring (SIM) were: for ART 198, 617 (M+K)^+, for ART 273, 589 (M+K)^+, for ART 488, 913 (M+Na)^+, and for ART 489, 957 (M+Na)^+. The dwell time was set at 200 msec. MS conditions were optimized using direct infusion of standard solutions prepared in methanol and delivered by a syringe pump at a flow rate of 20 μL/min.
Samples of 100 μL were collected at time points of 0, 15, 30, 45, 60, 75, 90, 105, 120, 135, 150, 165, 180, 210, 240, 300, 360 and 480 minutes respectively and the reaction was terminated with methanol. In a separate set of experiments the acid labile, lipophilic molecular conjugates were dissolved in a small amount of ethanol and diluted into a lipid emulsion (Liposyn®) and added to mouse and human plasma before incubation and the hydrolysis of the conjugates was similarly measured. Collected plasma samples of 100 μL containing drug were placed in separate Eppendorf micro centrifuge tubes for processing. Methanol (200 μL) was added to extract the drug using the protein precipitation technique. The micro tubes were then vortex mixed for 10 minutes and centrifuged for 15 minutes at a speed of 10,000 rpm (Eppendorf 5415C centrifuge). The supernatant was collected and filtered using a 0.45 μm filter (Waters 13 mm GHP 0.45 μm) before analysis.
The weighted linear least-squares (1/x) regression was used as the mathematical model. The coefficient (r) for the compounds ranged from 0.9925 to 0.9999. The calibration range was selected according to the concentrations anticipated in the samples to be determined.
Samples were collected at various times and the percent remaining of the acid labile, lipophilic molecular conjugate of the cancer chemotherapeutic agent was determined along with the percent of the chemotherapeutic agent released from the hydrolysis of the conjugate.

CEM/VM-1-5 cells (MDR+) = experiment: cells; format: cell-based, human; settings: for IC50: Homo sapiens, read-out: IC50 CEM/VM-1-5 (MDR + HTL), CEM/VM-1-5, MTT; for Degree of resistance (CEM/VM-1-5): IC50 of the resistant line divided by IC50 of sensitive CEM cells
Description: A second evaluation of the cytotoxicity of the acid labile, lipophilic molecular conjugates was undertaken. […]
The second set of cells tested, CCRF-CEM or simply CEM, were derived from the blood of a patient with acute lymphoblastic leukemia. G. E. Foley, H. Lazarus, S. Farber, B. G. Uzman, B. A. Boone, and R E. McCarthy. Continuous culture of human lymphoblasts from peripheral blood of a child with acute leukemia. Cancer 18: 522-529 (1965). The subline CEM/VLB100 was developed to be resistant to up to vinblastine at 100 ng/ml. W. T. Beck, T. J. Mueller, and L. R. Tanzer. Altered surface membrane glycoproteins in Vinca alkaloid-resistant human leukemic lymphoblasts. Cancer Research 39: 2070-2076 (1979). Drug resistance is achieved by overexpression of the MDR1 gene. Resistance in the CEM subline designated CEM/VM-1-5, however, is “atypical.” M. K. Danks, J. C. Yalowich, and W. T. Beck. Atypical multiple drug resistance in a human leukemic cell line selected for resistance to teniposide (VM-26). Cancer Research 47: 1297-1301 (1987). The classes of drugs included in the “classic” multiple drug resistance phenotype are Vinca alkaloids, anthracyclines, epipodophyllotoxins and antibiotics. However, CEM/VM-1-5 cells retain sensitivity to the Vinca alkaloids despite resistance and cross-resistance to etoposide, anthracyclines and mitoxantrone. Danks, M. K.; Schmidt, C. A.; Cirtain, M. C.; Suttle, D. P.; Beck, W. T., Altered catalytic activity of and DNA cleavage by DNA topoisomerase II from human leukemic cells selected for resistance to VM-26. Biochemistry 1988, 27, 8861-8869. Resistance in CEM/VM-1-5 cells is effected by over expression of the […]. CEM, CEM/VLB100 and CEM/VM-1-5 cells were obtained from Dr. WT Beck, University of Illinois at Chicago.

Row | Structure (SMILES) | percent remaining of initial drug ([1]; 0 min) [%] | percent remaining of initial drug ([1]; 15 min) [%] | percent remaining of initial drug ([1]; 30 min) [%] | percent remaining of initial drug ([1]; 45 min) [%] | percent remaining of initial drug ([1]; 60 min) [%] | percent remaining of initial drug ([1]; 75 min) [%] | percent remaining of initial drug ([1]; 90 min) [%] | percent remaining of initial drug ([1]; 105 min) [%] | percent remaining of initial drug ([1]; 120 min) [%] | percent remaining of initial drug ([1]; 135 min) [%] | percent remaining of initial drug ([1]; 150 min) [%] | percent remaining of initial drug ([1]; 165 min) [%] | percent remaining of initial drug ([1]; 180 min) [%] | percent remaining of initial drug ([1]; 210 min) [%] | percent remaining of initial drug ([1]; 240 min) [%] | percent remaining of initial drug ([1]; 300 min) [%] | percent remaining of initial drug ([1]; 360 min) [%] | percent remaining of initial drug ([1]; 480 min) [%] | IC50 (CEM/VM-1-5 cells (MDR+)) [µM] | Degree of resistance (CEM/VM-1-5) (CEM/VM-1-5 cells (MDR+))
1 | CCCCCCCCCCCCCCCC1OCC(COC(=O)O[C@@H]2C(=O)C=C(C)[C@@H]3C[C@H]4OC(=O)C(OC(=O)CC(O)(C(C)C)C(C)C)C5[C@@H](C)[C@@H](O)[C@@]6(O)OC[C@@]54C6[C@@]23C)O1 (stereo partly drawn) [ART 488] | 100 | 90.8 | 89.1 | 87.8 | 87.9 | 87.9 | 87.1 | 86.2 | 85.3 | 84.0 | 82.7 | 81.1 | 78.6 | 78.1 | 76.5 | 59.3 | 59.8 | 43.6 | 0.008 ± 0.004 | 2 ± 1
2 | COC(=O)[C@@]12OC[C@]34[C@H]([C@@H](O)[C@@H]1O)[C@@]1(C)CC(=O)C(O)=C(C)[C@@H]1C[C@H]3OC(=O)C(OC(=O)CC1(O)CCCCC1)[C@@H]24 (stereo partly drawn) [ART 198] | 100 | 99.3 | 99.1 | 94.9 | 94.6 | 93.1 | 89.9 | 87.0 | 68.5 | 66.4 | 61.1 | 59.6 | 48.6 | 47.6 | 46.0 | 44.4 | 39.6 | 34.2 | 0.308 ± 0.01 | 3 ± 1
3 | CCCCCCCCCCCCCCCC1OCC(COC(=O)OC2=C(C)[C@@H]3C[C@H]4OC(=O)C(OC(=O)CC5(O)CCCCC5)[C@H]5[C@]6(C(=O)OC)OC[C@]45[C@H]([C@@H](O)[C@@H]6O)[C@@]3(C)CC2=O)O1 (stereo partly drawn) [ART 489] | 100 | 99.3 | 98.8 | 98.4 | 97.4 | 94.6 | 93.7 | 93.0 | 91.9 | 91.7 | 90.9 | 90.4 | 90.1 | 89.0 | 86.7 | 84.1 | 78.7 | 65.9 | 0.024 ± 0.004 | 1.2 ± 0.07
